Data on 40 molecules can be found in BindingDB's records for patent US20230312550 (Astrazeneca, 2023).

One test addresses Dipeptidyl peptidase 2 (Homo sapiens, UniProt Q9UHL4). The test can be described thus: hDPP7 Inhibition Assay. The protocol: Table 4: Compounds were tested in a biochemical inhibition assay using human dipeptidylpeptidase 7 (hDPP7) enzyme at 15 nM FAC (BPS Bioscience, #80070) and the substrate Ala-Pro-amino-methylcoumarin (BPS Bioscience, #80305) at 5 μM FAC. The enzymatic reactions were conducted in duplicate at rt for 30 min in 50 μL DPP assay buffer (BPS Bioscience, #80300). Compound solutions (in DMSO) at 10 CR, 3 fold dilution series were prepared in assay buffer ten-fold higher than the final concentration, and 5 μL of the dilution was added to a 50 μL reaction so that the highest compound concentration was 100 μM FAC and the concentration of DMSO was 1% in all wells. The plates were read on a Tecan Infinite M1000 microplate reader with excitation 340 nm and emission 460 nm. Data were analyzed in Graph Pad Prism. IC50 values were determined by plotting % inhibition versus log compound concentration and using a one site dose response model. Raw data signals were normalized using 1% DMSO as 0% control and no enzyme as 100% inhibitor control.

The target in a further test is T1, Prolyl endopeptidase FAP (Homo sapiens, UniProt Q12884).
T1 sequence (Q12884 whole entry): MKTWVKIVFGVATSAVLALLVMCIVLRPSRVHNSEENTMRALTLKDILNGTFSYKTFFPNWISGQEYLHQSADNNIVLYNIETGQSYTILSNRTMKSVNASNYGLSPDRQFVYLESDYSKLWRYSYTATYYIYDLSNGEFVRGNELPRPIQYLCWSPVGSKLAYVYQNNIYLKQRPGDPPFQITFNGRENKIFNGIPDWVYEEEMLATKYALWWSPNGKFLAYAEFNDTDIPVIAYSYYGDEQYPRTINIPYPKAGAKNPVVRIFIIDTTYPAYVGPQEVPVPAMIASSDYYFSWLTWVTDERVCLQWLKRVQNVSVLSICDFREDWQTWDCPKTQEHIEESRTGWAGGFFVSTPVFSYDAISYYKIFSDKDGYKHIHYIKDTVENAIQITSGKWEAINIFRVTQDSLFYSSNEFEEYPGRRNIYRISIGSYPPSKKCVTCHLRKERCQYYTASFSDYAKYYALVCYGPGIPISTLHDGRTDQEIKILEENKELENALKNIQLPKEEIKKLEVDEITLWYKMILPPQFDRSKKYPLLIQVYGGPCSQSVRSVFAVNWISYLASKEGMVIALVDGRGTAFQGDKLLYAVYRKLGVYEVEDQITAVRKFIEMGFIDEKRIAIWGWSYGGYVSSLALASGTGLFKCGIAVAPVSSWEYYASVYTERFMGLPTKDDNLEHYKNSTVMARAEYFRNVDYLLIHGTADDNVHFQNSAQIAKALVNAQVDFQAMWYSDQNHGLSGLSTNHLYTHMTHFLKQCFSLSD
The experiment in a line: hFAP Binding Assay. The note with it: for kon: read-out: kon (M-1-s-1).

Bounds are passed on as bounds.

Experimental for Prolyl endopeptidase FAP: Table 1: Compounds were tested in a direct binding assay using 8K surface plasmon resonance biosensor (GE Healthcare) at 20° C. Immobilization of hFAP (M39-A757) on a CMD200M sensor chip (Xantec) was performed using standard amine coupling procedure in immobilization buffer (10 mM HEPES, 150 mM NaCl, 0.05% Tween20, pH 7.4). The surface was washed with 10 mM NaOH, 1M NaCl before being activated with EDC/NHS (GE Healthcare), followed by immobilization of hFAP (in 10 mM Acetate pH 5.0). Finally, the surface was deactivated by ethanolamine. Immobilization levels of hFAP were around 4000-6000 RU. The reference spot was treated as described, omitting the injection of hFAP. Compound concentration series were injected over the immobilized protein in increasing concentrations (2-500 nM) using single cycle kinetics in running buffer (20 mM TRIS, 150 mM NaCl, 0.05% Tween20, 1% DMSO, pH 7.4).

`Cc1cc(N2CCOCC2)cc2c(C(=O)NCC(=O)N3CSC[C@H]3C#N)ccnc12` [US20230312550, Example 9]: the 50% inhibitory concentration (IC50) (commonly the concentration needed to halve the response being measured) at Dipeptidyl peptidase 2 was greater than 100 µM.
`N#C[C@@H]1CSCN1C(=O)CNC(=O)c1ccnc2ccc(N3CC4(CC4)C[C@@H]3CF)cc12` [US20230312550, Example 58]: at Prolyl endopeptidase FAP, the koff (as a rule, the first-order rate constant of dissociation) came to 0.091 s⁻¹ and the kon – broadly, the second-order rate constant of association – amounted to 8.8e+09 M⁻¹ s⁻¹.
The like results for `N#C[C@@H]1CSCN1C(=O)CNC(=O)c1ccnc2ccc(N3CCC34CCC4)cc12` [US20230312550, Example 19] were, in that order, 6.6e-05 s⁻¹ and 430000 M⁻¹ s⁻¹.
With `N#C[C@@H]1CSCN1C(=O)CNC(=O)c1ccnc2ccc(N3CC4(CCC4)C3)cc12` [US20230312550, Example 17], at Prolyl endopeptidase FAP, the off-rate constant (koff) amounted to 0.00012 s⁻¹ and the kon is 8.3e+06 M⁻¹ s⁻¹.
Take `C[C@H]1N(c2ccc3nccc(C(=O)NCC(=O)N4CSC[C@H]4C#N)c3c2)CC1(F)F` [US20230312550, Example 159]: on Prolyl endopeptidase FAP, the koff stood at 9.2e-05 s⁻¹ and the kon stood at 2.1e+06 M⁻¹ s⁻¹.
In the same order, the values of `CC1(C2CC2)CN(c2ccc3nccc(C(=O)NCC(=O)N4CSC[C@H]4C#N)c3c2)C1` [US20230312550, Example 134] are 8e-05 s⁻¹ and 620000 M⁻¹ s⁻¹.
The like results for `CC1(C)CN(c2ccc3nccc(C(=O)NCC(=O)N4CSC[C@H]4C#N)c3c2)CCC1(F)F` [US20230312550, Example 38] were, in that order, 7.8e-05 s⁻¹ and 520000 M⁻¹ s⁻¹.
The like results for `COC[C@@H]1[C@@H](C)OCCN1c1ccc2nccc(C(=O)NCC(=O)N3CSC[C@H]3C#N)c2c1` [US20230312550, Example 97] were, in that order, 7.6e-05 s⁻¹ and 690000 M⁻¹ s⁻¹.
With `Cc1noc(C)c1-c1ccc2nccc(C(=O)NCC(=O)N3CSC[C@H]3C#N)c2c1` [US20230312550, Example 216], on Prolyl endopeptidase FAP, the koff was determined as 0.0009 s⁻¹ and the kon turned out to be 5.2e+06 M⁻¹ s⁻¹.
The like results for `CC1(C)COC12CN(c1ccc3nccc(C(=O)NCC(=O)N4CSC[C@H]4C#N)c3c1)C2` [US20230312550, Example 18] were, in that order, 5.9e-05 s⁻¹ and 1.4e+06 M⁻¹ s⁻¹.
The like results for `N#C[C@@H]1CSCN1C(=O)CNC(=O)c1ccnc2ccc(N3CC4CCCC4C3)cc12` (some centres undefined) [US20230312550, Example 53] were, in that order, 5e-05 s⁻¹ and 680000 M⁻¹ s⁻¹.
`N#C[C@@H]1CSCN1C(=O)CNC(=O)c1ccnc2ccc(N3C[C@@H]4CC[C@H]3C4)cc12` (mixture of isomers) [US20230312550, Example 210]: on Prolyl endopeptidase FAP, the koff came to 9.8e-05 s⁻¹ and the kon was 3.8e+06 M⁻¹ s⁻¹.
Consider `C[C@]1(O)CCN(c2ccc3nccc(C(=O)NCC(=O)N4CSC[C@H]4C#N)c3c2)C1` [US20230312550, Example 168], for which, at Prolyl endopeptidase FAP, the koff turned out to be 4.8e-05 s⁻¹ and the kon is 1.6e+06 M⁻¹ s⁻¹.
In the same order, the values of `N#C[C@@H]1CSCN1C(=O)CNC(=O)c1ccnc2ccc(N3CC4(CC(F)C4)C3)cc12` [US20230312550, Example 155] are 5e-05 s⁻¹ and 3.1e+06 M⁻¹ s⁻¹.
Consider `N#C[C@@H]1CSCN1C(=O)CNC(=O)c1ccnc2ccc(N3CCOC[C@@H]3C(F)(F)F)cc12` [US20230312550, Example 85], for which, on Prolyl endopeptidase FAP, the koff was determined as 0.00011 s⁻¹ and the “koff (s-1)” value is 0.00011 s⁻¹.
Take `N#C[C@@H]1CSCN1C(=O)CNC(=O)c1ccnc2ccc(N3CC(C4CC4)C3)cc12` [US20230312550, Example 145]: at Prolyl endopeptidase FAP, the koff came to 0.00013 s⁻¹ and the kon came out at 4.5e+06 M⁻¹ s⁻¹.
Turning to `N#C[C@@H]1CSCN1C(=O)CNC(=O)c1ccnc2ccc(N3CCC4(CC4)C3)cc12` [US20230312550, Example 49], on Prolyl endopeptidase FAP, the koff is 0.00017 s⁻¹ and the kon is 8.8e+06 M⁻¹ s⁻¹.
In the same order, the values of `CC(F)(F)C1CN(c2ccc3nccc(C(=O)NCC(=O)N4CSC[C@H]4C#N)c3c2)C1` [US20230312550, Example 147] are 0.00012 s⁻¹ and 2.8e+06 M⁻¹ s⁻¹.
Take `N#C[C@@H]1CSCN1C(=O)CNC(=O)c1ccnc2ccc(N3C4CCC3CC4)cc12` [US20230312550, Example 209]: at Prolyl endopeptidase FAP, the koff was 4.2e-05 s⁻¹ and the on-rate (kon) amounted to 3.2e+06 M⁻¹ s⁻¹.
On to `C[C@H]1CCN(c2ccc3nccc(C(=O)NCC(=O)N4CSC[C@H]4C#N)c3c2)C1=O` (single isomer, unassigned) [US20230312550, Example 201], for which, at Prolyl endopeptidase FAP, the koff amounted to 0.0001 s⁻¹ and the kon was 1.8e+06 M⁻¹ s⁻¹.
In the case of `C[C@H]1COC[C@H](C)N1c1ccc2nccc(C(=O)NCC(=O)N3CSC[C@H]3C#N)c2c1` [US20230312550, Example 103], at Prolyl endopeptidase FAP, the off-rate (koff) worked out at 0.0001 s⁻¹ and the kon amounted to 3e+06 M⁻¹ s⁻¹.
In the case of `CC1(CF)CCN(c2ccc3nccc(C(=O)NCC(=O)N4CSC[C@H]4C#N)c3c2)CC1` [US20230312550, Example 37], on Prolyl endopeptidase FAP, the koff came out at 3e-05 s⁻¹ and the kon was found to be 1e+06 M⁻¹ s⁻¹.
For the molecule `CC1(C)CCN1c1ccc2nccc(C(=O)NCC(=O)N3CSC[C@H]3C#N)c2c1` [US20230312550, Example 20], on Prolyl endopeptidase FAP, the koff turned out to be 0.00012 s⁻¹ and the kon was determined as 4.2e+06 M⁻¹ s⁻¹.
Take `C[C@@H]1CN(c2ccc3nccc(C(=O)NCC(=O)N4CSC[C@H]4C#N)c3c2)C[C@H](C)[C@]1(C)O` [US20230312550, Example 193]: on Prolyl endopeptidase FAP, the koff came out at 0.00012 s⁻¹ and the on-rate (kon) came to 740000 M⁻¹ s⁻¹.
As to `N#C[C@@H]1CSCN1C(=O)CNC(=O)c1ccnc2ccc(N3CC(CC(F)(F)F)C3)cc12` [US20230312550, Example 158], at Prolyl endopeptidase FAP, the off-rate constant (koff) came out at 0.00029 s⁻¹ and the kon was 3.1e+06 M⁻¹ s⁻¹.
In the same order, the values of `N#C[C@@H]1CSCN1C(=O)CNC(=O)c1ccnc2ccc(N3CC(F)(c4ccccc4)C3)cc12` [US20230312550, Example 182] are 4.2e-05 s⁻¹ and 250000 M⁻¹ s⁻¹.
Turning to `N#C[C@@H]1CSCN1C(=O)CNC(=O)c1ccnc2ccc(-n3ccc4c(F)cc(F)cc43)cc12` [US20230312550, Example 119], at Prolyl endopeptidase FAP, the dissociation rate constant (koff) was determined as 0.00031 s⁻¹ and the kon was found to be 610000 M⁻¹ s⁻¹.
The like results for `N#C[C@@H]1CSCN1C(=O)CNC(=O)c1ccnc2ccc(N3CC(OC(F)F)C3)cc12` [US20230312550, Example 136] were, in that order, 5e-05 s⁻¹ and 2e+06 M⁻¹ s⁻¹.
Regarding `COCC[C@@H]1COCCN1c1ccc2nccc(C(=O)NCC(=O)N3CSC[C@H]3C#N)c2c1` [US20230312550, Example 95], at Prolyl endopeptidase FAP, the koff amounted to 5.6e-05 s⁻¹ and the kon worked out at 2.9e+06 M⁻¹ s⁻¹.
In the same order, the values of `N#C[C@@H]1CSCN1C(=O)CNC(=O)c1ccnc2ccc(N3CC4C(C3)C4(F)F)cc12` (some centres undefined) [US20230312550, Example 160] are 7.4e-05 s⁻¹ and 1.1e+06 M⁻¹ s⁻¹.
Consider `N#C[C@@H]1CSCN1C(=O)CNC(=O)c1ccnc2ccc(-c3ccnn3[C@H]3CCCCO3)cc12` [US20230312550, Example 176], for which, on Prolyl endopeptidase FAP, the koff is 0.00022 s⁻¹ and the on-rate (kon) is 120000 M⁻¹ s⁻¹.
On to `CC1CC2(C1)CN(c1ccc3nccc(C(=O)NCC(=O)N4CSC[C@H]4C#N)c3c1)C2` [US20230312550, Example 149], for which, on Prolyl endopeptidase FAP, the koff was 3.9e-05 s⁻¹ and the on-rate (kon) came out at 4.8e+06 M⁻¹ s⁻¹.
In the same order, the values of `COC1(C)CCN(c2ccc3nccc(C(=O)NCC(=O)N4CSC[C@H]4C#N)c3c2)CC1` [US20230312550, Example 42] are 5.4e-05 s⁻¹ and 1.8e+06 M⁻¹ s⁻¹.
In the case of `N#C[C@@H]1CSCN1C(=O)CNC(=O)c1ccnc2ccc(N3CCC4(CC3)COC4)cc12` [US20230312550, Example 229], at Prolyl endopeptidase FAP, the dissociation rate constant (koff) is 2.6e-05 s⁻¹ and the kon was 2.4e+06 M⁻¹ s⁻¹.
In the same order, the values of `CO[C@@H]1CN(c2ccc3nccc(C(=O)NCC(=O)N4CSC[C@H]4C#N)c3c2)[C@H]1C` [US20230312550, Example 30] are 0.00022 s⁻¹ and 5.2e+06 M⁻¹ s⁻¹.
Consider `N#C[C@@H]1CSCN1C(=O)CNC(=O)c1ccnc2ccc(N3CCC4(CCOCC4)CC3)cc12` [US20230312550, Example 162], for which, on Prolyl endopeptidase FAP, the koff was 2.8e-05 s⁻¹ and the kon turned out to be 1.9e+06 M⁻¹ s⁻¹.
The like results for `N#C[C@@H]1CSCN1C(=O)CNC(=O)c1ccnc2ccc(N3CCSCC3)cc12` [US20230312550, Example 3] were, in that order, 0.0004 s⁻¹ and 4.1e+06 M⁻¹ s⁻¹.
In the same order, the values of `N#C[C@@H]1CSCN1C(=O)CNC(=O)c1ccnc2ccc(-n3ccc(-c4ccccc4)c3)cc12` [US20230312550, Example 218] are 0.00032 s⁻¹ and 670000 M⁻¹ s⁻¹.
In the same order, the values of `N#C[C@@H]1CSCN1C(=O)CNC(=O)c1ccnc2ccc(-c3ccc(C(F)F)nc3)cc12` [US20230312550, Example 169] are 0.00096 s⁻¹ and 6.2e+06 M⁻¹ s⁻¹.
`C[C@@H]1CCN(c2ccc3nccc(C(=O)NCC(=O)N4CSC[C@H]4C#N)c3c2)C1=O` [US20230312550, Example 202]: at Prolyl endopeptidase FAP, the koff was determined as 7e-05 s⁻¹ and the association rate constant (kon) amounted to 1.6e+06 M⁻¹ s⁻¹.
